According to patent US20100041631A1 (priority 2006, published 2010):
Where two headings read alike, the source gives them in different places.

Legend:
M tuberculosis HsaC = M tuberculosis HsaC (Mycobacterium tuberculosis, UniProt P9WNW7); assay: Inhibition of cloned M. tuberculosis HsaC, spectroscopic assay; format: biochemical; settings: in a manner consistent with oxidation of the active site Fe(II)
HsaCH37Rv = HsaCH37Rv (Mycobacterium tuberculosis, UniProt P9WNW7); format: biochemical, M. tuberculosis H37Rv; settings: for Km: cell extract, pH 8.0, 25 °C
Chain of HsaCH37Rv (P9WNW7 whole entry, looked up): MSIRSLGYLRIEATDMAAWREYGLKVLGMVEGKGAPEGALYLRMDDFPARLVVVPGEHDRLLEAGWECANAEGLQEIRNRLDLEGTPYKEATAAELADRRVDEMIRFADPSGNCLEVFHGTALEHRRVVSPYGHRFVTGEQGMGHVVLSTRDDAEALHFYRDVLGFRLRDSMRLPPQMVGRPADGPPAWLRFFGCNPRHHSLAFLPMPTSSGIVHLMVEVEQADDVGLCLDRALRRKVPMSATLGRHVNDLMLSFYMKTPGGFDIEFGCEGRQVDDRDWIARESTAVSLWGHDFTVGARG

HsaDH37Rv = HsaDH37Rv (Mycobacterium tuberculosis, UniProt P9WNH5); format: biochemical, M. tuberculosis H37Rv; settings: for Vmax / Km: substrate of HsaDH37Rv, standard error in parentheses; for Km: cell extract, pH 8.0, 25 °C
Chain of HsaDH37Rv (P9WNH5 whole entry, looked up): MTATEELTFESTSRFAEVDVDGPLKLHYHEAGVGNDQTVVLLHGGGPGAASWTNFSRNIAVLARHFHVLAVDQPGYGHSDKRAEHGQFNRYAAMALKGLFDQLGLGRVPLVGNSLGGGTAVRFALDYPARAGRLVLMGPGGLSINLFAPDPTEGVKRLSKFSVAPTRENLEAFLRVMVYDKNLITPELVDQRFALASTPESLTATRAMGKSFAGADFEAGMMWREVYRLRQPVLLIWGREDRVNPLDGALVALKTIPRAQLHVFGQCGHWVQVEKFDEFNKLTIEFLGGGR

M. tuberculosis H37Rv = assay: Growth of H37Rv on cholesterol or 4-AD as growth substrate; format: cell-based; settings: for growth of H37Rv colonies on solid medium: substance as the sole organic substrate, no growth on control medium
[1] = system: M. bovis Bacillus Calmette-Guerin (BCG); format: cell-based
[2] = substrate of HsaCH37Rv, standard error in parentheses

Chain of M tuberculosis HsaC (P9WNW7 whole entry, looked up): as the sequence (P9WNW7 whole entry, looked up) above

For `Oc1cccc(Cl)c1O` [3CC, 3-chlorocatechol], the “inactivation of HsaC” value (M tuberculosis HsaC) was “inactivated HsaC”.
`Oc1cccc(-c2ccccc2)c1O` [DHB] was tested, and the Vmax (HsaCH37Rv) was 2.5 (0.4) μM^s−1 and the Km (HsaCH37Rv; [2]) was 8.5 µM.
In the case of `O=C(O)C(O)=CC=CC(=O)c1ccccc1` [HOPDA, 2-hydroxy-6-oxo-6-phenylpentadienoate], the Vmax (HsaDH37Rv; […]) is reported as 0.009 (0.003) μM^s−1 and the Km (HsaDH37Rv) is reported as 19 µM.
In the case of `C[C@]12CCC(=O)C=C1CC[C@@H]1[C@@H]2CC[C@]2(C)C(=O)CC[C@@H]12` [4-AD, 4-androstene-3,17-dione], the “growth of H37Rv colonies on solid medium” value (M. tuberculosis H37Rv) is reported as “Colonies grew”.
`C/C(=C\C=C(/O)C(=O)O)C(=O)CC[C@@H]1C(=O)CC[C@]2(C)C(=O)CC[C@@H]12` [4,9-DSHA, 4,5-9,10-diseco-3-hydroxy-5,9,17-trioxoandrosta-1(10),2-diene-4-oic acid] was tested, and the “apparent specificity of hydrolysis relative to HOPDA” value (HsaDH37Rv; […], higher than for HOPDA) was 34 fold, the Vmax (HsaDH37Rv; […]) was 0.06 (0.02) μM^s−1 and the Km (HsaDH37Rv) was 4 µM.
For `Cc1ccc(O)c(O)c1CC[C@@H]1C(=O)CC[C@]2(C)C(=O)CC[C@@H]12` [3,4-DHSA, 3,4-dihydroxy-9,10-seconandrost-1,3,5(10)-triene-9,17-dione], the “apparent specificity of extradiol cleavage relative to DHB” value (HsaCH37Rv) was 44 fold, the Vmax (HsaCH37Rv; substrate of HsaCH37Rv, […], standard error in parentheses) was 12 (4) μM^s−1 and the Km (HsaCH37Rv; [2]) was 0.9 µM.
For `CC(C)CCC[C@@H](C)[C@H]1CC[C@H]2[C@@H]3CC=C4C[C@@H](O)CC[C@]4(C)[C@H]3CC[C@]12C` [cholesterol], the “overall protein yield of BCG culture” value ([1]; medium supplemented with 0.25 mM cholesterol (0 mM: 22+/−7)) was 46 ± 9 µg/mL, the “overall protein yield of BCG culture” value ([1]; medium supplemented with 0.5 mM cholesterol (0 mM: 22+/−7)) was 70 ± 4 µg/mL and the “growth of H37Rv in liquid culture” value (M. tuberculosis H37Rv; phospholipid vesicles containing cholesterol versus vesicles containing no cholesterol) was “grew faster”. The “growth of H37Rv colonies on solid medium” value (M. tuberculosis H37Rv) was “Colonies grew”.
